Read-outs that look alike come from different tables or passages of the source.
Columns and labels:
[1] = oxymorphone-induced Straub tail test (oxymorphone antagonist activity); assay type: in vivo; conditions: for antagonist potency relative to butorphanol, Straub tail test: vs butorphanol
Source text: (§1) Table 2 compares the oxymorphone and morphine antagonist activity of two of the preferred embodiments of this invention with the antagonist activity of butorphanol, in the standard oxymorphone-induced Straub tail test and the morphine antagonist rat tail flick test. In the Straub tail test, subcutaneously, BL-5951 and BL-5961 were about 5 times and about 1.6 times, respectively, as potent as butorphanol. Orally, they were about 55 times and about 1.7 times, respectively, as potent as butorphanol.

[2] = morphine antagonist rat tail flick test; assay type: in vivo; conditions: subcutaneous; for ED50: sc
Source text: as §1

[3] = assay type: in vivo; conditions: for agonist potency relative to butorphanol / agonist potency relative to morphine sulfate: mice; for agonist potency relative to butorphanol: vs butorphanol; for agonist potency relative to morphine sulfate: vs morphine sulfate
[4] = assay type: in vivo; conditions: subcutaneous
[5] = oral, read-out: Antagonist Activity ED50, Oxymorphone-induced Straub Tail, PO
[6] = sc, subcutaneous, read-out: Antagonist Activity ED50, Oxymorphone-induced Straub Tail, SC

Compound: Oc1ccc2c(c1)[C@]13CCN(CC4CC4)[C@H](C2)[C@]1(O)CCOC3 (racemic) [BL-5951, 17-Cyclopropylmethyl-3,14β-dihydroxy-6-oxamorphinan]
- antagonist potency relative to butorphanol, Straub tail test ([1]; oral): about 55 times
- ED50 [1, 5]: ~1 mg/kg
- ED50 [1, 6]: ~0.2 mg/kg
- antagonist potency relative to butorphanol, Straub tail test ([1]; subcutaneous): about 5 times
- ED50 [2]: ~0.09 mg/kg
- antagonist potency relative to butorphanol, rat tail flick test ([2]; vs butorphanol): about 4.8 times

Compound: Oc1ccc2c(c1)[C@]13CCN(CC4CCC4)[C@H](C2)[C@]1(O)CCOC3 (racemic) [BL-5961, 17-Cyclobutylmethyl-3,14β-dihydroxy-6-oxamorphinan]
- agonist potency relative to butorphanol ([3]; oral): about 2.5 times
- agonist potency relative to morphine sulfate ([3]; oral): about 1.4 times
- agonist potency relative to butorphanol ([3]; subcutaneous): about 1.4 times
- agonist potency relative to morphine sulfate ([3]; subcutaneous): about 7 times
- Agonist Activity ED50, Mice (PO) ([3]; oral): 2.2 mg/kg
- Agonist Activity ED50, Mice (SC) ([3]; subcutaneous): 0.037 mg/kg
- agonist potency relative to butorphanol ([4]; rats, vs butorphanol): about equipotent
- agonist potency relative to morphine sulfate ([4]; rats, vs morphine sulfate): about 4 times
- Agonist Activity ED50, Rats (SC) [4]: 0.041 mg/kg
- antagonist potency relative to butorphanol, Straub tail test ([1]; oral): about 1.7 times
- ED50 [1, 5]: ~32 mg/kg
- ED50 [1, 6]: 0.61 mg/kg
- antagonist potency relative to butorphanol, Straub tail test ([1]; subcutaneous): about 1.6 times
- ED50 [2]: ~0.4 mg/kg
- antagonist potency relative to butorphanol, rat tail flick test (in words) ([2]; vs butorphanol): about equipotent

Compound: CN1CC[C@]23COC(C)(C)C[C@@]2(O)[C@H]1Cc1ccc(O)cc13 (racemic) [BL-6021, 3,14β-Dihydroxy-7,7,17-trimethyl-6-oxamorphinan]
- agonist potency relative to butorphanol ([3]; subcutaneous): about 1.4 times
- agonist potency relative to morphine sulfate ([3]; subcutaneous): about 7 times
- Agonist Activity ED50, Mice (SC) ([3]; subcutaneous): 0.037 mg/kg

Compound: Oc1ccc2c(c1)[C@@]13CCCC[C@@]1(O)[C@@H](C2)N(CC1CCC1)CC3 [butorphanol, reference compound]
- Agonist Activity ED50, Mice (PO) ([3]; oral): 5.6 mg/kg
- Agonist Activity ED50, Mice (SC) ([3]; subcutaneous): 0.051 mg/kg
- Agonist Activity ED50, Rats (SC) [4]: 0.040 mg/kg
- ED50 [1, 5]: 55 mg/kg
- ED50 [1, 6]: 0.98 mg/kg
- ED50 [2]: 0.43 mg/kg
